Read-outs that look alike come from different tables or passages of the source.

The target in data set [1] is T1, human MAO-A (Homo sapiens, UniProt P21397).
T1 construct: purchased MilliporeSigma (Milan, Italy); host or cells: baculovirus-infected insect cells (BTI-TN-5B1-4)
T1 sequence (P21397 1-527): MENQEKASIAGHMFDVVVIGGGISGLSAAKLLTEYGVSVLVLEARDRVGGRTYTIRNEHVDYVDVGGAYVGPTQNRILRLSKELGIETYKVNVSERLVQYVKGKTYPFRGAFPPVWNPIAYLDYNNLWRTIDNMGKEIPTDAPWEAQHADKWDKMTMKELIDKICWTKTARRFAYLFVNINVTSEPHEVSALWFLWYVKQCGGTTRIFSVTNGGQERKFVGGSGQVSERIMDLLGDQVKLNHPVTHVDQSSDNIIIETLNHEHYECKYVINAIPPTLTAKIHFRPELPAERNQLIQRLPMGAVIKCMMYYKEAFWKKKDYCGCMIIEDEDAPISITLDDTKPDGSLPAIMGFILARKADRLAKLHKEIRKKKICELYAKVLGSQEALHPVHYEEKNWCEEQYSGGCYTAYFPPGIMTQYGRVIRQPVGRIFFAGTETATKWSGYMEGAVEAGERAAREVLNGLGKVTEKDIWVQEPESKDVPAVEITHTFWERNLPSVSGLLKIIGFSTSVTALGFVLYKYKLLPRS
The data set is described as follows: MAO-Glo bioluminescent MAO-A inhibition assay. Conditions: Table 1. It is filed as biochemical.

The target in data set [2] is T2, human MAO-B (Homo sapiens, UniProt P27338).
T2 construct: purchased MilliporeSigma (Milan, Italy); host or cells: baculovirus-infected insect cells (BTI-TN-5B1-4)
T2 sequence (P27338 1-520): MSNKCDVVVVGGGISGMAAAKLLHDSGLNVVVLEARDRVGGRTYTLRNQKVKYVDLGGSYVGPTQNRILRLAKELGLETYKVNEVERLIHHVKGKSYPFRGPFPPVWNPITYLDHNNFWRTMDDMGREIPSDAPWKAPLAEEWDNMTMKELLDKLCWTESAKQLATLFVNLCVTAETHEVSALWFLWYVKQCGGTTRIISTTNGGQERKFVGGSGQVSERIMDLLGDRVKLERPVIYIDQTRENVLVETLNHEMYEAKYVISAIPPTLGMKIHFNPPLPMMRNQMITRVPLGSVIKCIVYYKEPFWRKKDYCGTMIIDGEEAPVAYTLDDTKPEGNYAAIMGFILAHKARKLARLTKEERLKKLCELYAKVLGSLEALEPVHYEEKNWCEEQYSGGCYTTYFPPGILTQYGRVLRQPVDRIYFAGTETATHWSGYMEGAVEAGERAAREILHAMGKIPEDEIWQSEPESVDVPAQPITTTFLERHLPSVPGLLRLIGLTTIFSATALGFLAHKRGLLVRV
As to the kind of experiment: MAO-Glo bioluminescent MAO-B inhibition assay. It is filed as biochemical. Conditions: for Selectivity of inhibition between MAO-A and MAO-B, in words: comparison of MAO-A and MAO-B IC50 of Table 1.

Details of data set [3]: method as in PMID 21370449. To be noted: after consumption of an apple smoothie; cited from earlier work.
Setting [4] is: molarity, standard metabolites, read-out: IC50 Value MAO-A M.
Setting [5] is: Table 1, MAO-Glo, mean of quadruplicate determinations, kiwifruit as mg fruit fresh weight/mL, read-out: IC50 Value MAO-B (mg/mL) (converted).
Setting [6] is: Table 1, molarity, standard metabolites, read-out: IC50 Value MAO-B M.

`O=C(O)/C=C/c1ccc(O)c(O)c1` [Caffeic acid, caffeic acid]: the IC50 in data set [1] (MAO-Glo, mean of quadruplicate determinations, kiwifruit as mg fruit fresh weight/mL, read-out: IC50 Value MAO-A (mg/mL) (converted)) is 2.72 mM; in data set [1] (setting [4]), 2.75 ± 0.126 mM; in data set [2] (setting [5]) it was 0.444 mM; in data set [2] (setting [6]) it was 0.439 ± 0.03 mM.
Take `O=C(O)[C@]1(O)C[C@@H](O)[C@@H](O)[C@H](O)C1` [D-(−)-Quinic acid, D-(−)-quinic acid]: the IC50 in data set [2] (setting [5]) is 34.3 mM; in data set [2] (setting [6]), 34.4 ± 1.31 mM. Also, in data set [2], the “Selectivity of inhibition between MAO-A and MAO-B, in words” value is on record as “selective activity against MAO-B”. The “Level detected in ileostomy fluids” value in data set [3] is ~ 70%.
With `O=c1ccc2cc(O[C@@H]3O[C@H](CO)[C@@H](O)[C@H](O)[C@H]3O)c(O)cc2o1` [Esculin], the IC50 in data set [1] (IC50 Value MAO-A (mg/mL), MAO-Glo, mean of quadruplicate determinations, kiwifruit as mg fruit fresh weight/mL) is 11.5 mM; in data set [1] (IC50 Value MAO-A M, molarity, standard metabolites), 11.5 ± 0.43 mM; in data set [2] (setting [5]), 12 mM; in data set [2] (setting [6]), 12.1 ± 0.372 mM. The “Selectivity of inhibition between MAO-A and MAO-B, in words” value in data set [2] is listed as “inhibited both enzymes similarly”.
Turning to (+)-catechin hydrate, in data set [1] (MAO-Glo, mean of quadruplicate determinations, kiwifruit as mg fruit fresh weight/mL), the “IC50 Value MAO-A” value was determined as 1880 ± 40 µg/mL. Also, the IC50 is 6.46 ± 0.121 mM in data set [1] (setting [4]) and 4.03 ± 0.122 mM in data set [2] (setting [6]). For the same compound, the “IC50 Value MAO-B” value in data set [2] (Table 1, MAO-Glo, mean of quadruplicate determinations, kiwifruit as mg fruit fresh weight/mL) was 1170 ± 40 µg/mL. For the same compound, the “Selectivity of inhibition between MAO-A and MAO-B, in words” value in data set [2] is given as “inhibited both enzymes similarly”.

Source of the values: publication PMC8838583, “Inhibition of Human Monoamine Oxidases A and B by Specialized Metabolites Present in Fresh Common Fruits and Vegetables” (Plants, 2022).
